In ChEMBL document CHEMBL1806384, “Identification of benzofuran-4,5-diones as novel and selective non-hydroxamic acid, non-peptidomimetic based inhibitors of human peptide deformylase” (Bioorg Med Chem Lett, 2011):
≈ marks a conversion by molar mass, not a printed value. Values belong to the molecule of their own block, whether it stands above or below them.

What was measured:
[1] = target: T1, Peptide deformylase, mitochondrial (Homo sapiens, UniProt Q9HBH1); test: Inhibition of human peptide deformylase after 1 hr by fluorescence polarization based competition assay
T1 sequence (Q9HBH1 whole entry): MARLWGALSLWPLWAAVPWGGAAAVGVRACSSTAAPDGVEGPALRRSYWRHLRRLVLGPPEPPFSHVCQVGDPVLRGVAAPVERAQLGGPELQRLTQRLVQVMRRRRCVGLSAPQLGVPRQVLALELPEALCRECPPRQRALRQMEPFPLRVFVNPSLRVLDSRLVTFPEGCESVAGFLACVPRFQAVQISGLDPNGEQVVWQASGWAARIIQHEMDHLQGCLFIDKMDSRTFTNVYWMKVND

[2] = target: T2, Peptide deformylase (Escherichia coli, UniProt Q9JN24); test: Inhibition of Escherichia coli peptide deformylase after 1 hr by fluorescence polarization based competition assay
T2 sequence (Q9JN24 whole entry): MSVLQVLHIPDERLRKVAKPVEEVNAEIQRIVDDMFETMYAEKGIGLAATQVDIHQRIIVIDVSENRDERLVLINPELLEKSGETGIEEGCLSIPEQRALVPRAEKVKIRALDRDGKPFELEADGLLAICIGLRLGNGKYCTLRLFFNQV

[3] = target: T3, Peptide deformylase, mitochondrial (Homo sapiens) (UniProt Q9HBH1); test: Inhibition of human peptide deformylase at 100 uM after 1 hr by fluorescence polarization based competition assay
T3 sequence (whole entry): T1 sequence (Q9HBH1 whole entry)

[4] = target: T4, Peptide deformylase (Escherichia coli) (UniProt Q9JN24); test: Inhibition of Escherichia coli peptide deformylase at 100 uM after 1 hr by fluorescence polarization based competition assay
T4 sequence (whole entry): T2 sequence (Q9JN24 whole entry)

[5] = target: T5, Aminopeptidase N (Sus scrofa) (UniProt P15145); test: Inhibition of porcine kidney microsomal aminopeptidase N at 100 uM after 1 hr by fluorescence polarization based competition assay
T5 sequence (whole entry): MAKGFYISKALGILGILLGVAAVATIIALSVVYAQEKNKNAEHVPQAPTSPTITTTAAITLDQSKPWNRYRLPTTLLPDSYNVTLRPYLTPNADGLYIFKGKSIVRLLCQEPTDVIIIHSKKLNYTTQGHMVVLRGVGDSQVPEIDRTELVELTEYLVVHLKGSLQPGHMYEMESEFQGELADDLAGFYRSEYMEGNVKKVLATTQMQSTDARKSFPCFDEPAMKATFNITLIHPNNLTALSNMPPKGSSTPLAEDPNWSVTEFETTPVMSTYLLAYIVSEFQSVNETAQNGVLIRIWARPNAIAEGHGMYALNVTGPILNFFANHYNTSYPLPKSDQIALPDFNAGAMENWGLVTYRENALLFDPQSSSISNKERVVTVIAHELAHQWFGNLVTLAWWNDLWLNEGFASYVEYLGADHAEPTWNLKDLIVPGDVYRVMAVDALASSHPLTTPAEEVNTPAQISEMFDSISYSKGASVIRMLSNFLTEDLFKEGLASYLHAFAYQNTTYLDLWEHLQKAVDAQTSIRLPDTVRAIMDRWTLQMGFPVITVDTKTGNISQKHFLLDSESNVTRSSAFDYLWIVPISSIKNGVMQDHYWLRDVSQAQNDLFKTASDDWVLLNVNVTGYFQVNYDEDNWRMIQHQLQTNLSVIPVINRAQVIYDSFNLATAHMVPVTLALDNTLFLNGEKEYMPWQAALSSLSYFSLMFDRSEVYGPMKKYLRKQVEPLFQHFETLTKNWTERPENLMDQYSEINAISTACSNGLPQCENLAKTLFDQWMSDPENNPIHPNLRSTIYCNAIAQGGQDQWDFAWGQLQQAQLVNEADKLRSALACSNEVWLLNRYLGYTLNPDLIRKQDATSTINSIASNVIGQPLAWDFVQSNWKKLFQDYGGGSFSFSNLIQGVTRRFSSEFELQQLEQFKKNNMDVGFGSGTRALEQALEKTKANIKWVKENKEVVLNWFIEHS

[6] = target: T6, Interstitial collagenase (Homo sapiens) (UniProt P03956); test: Inhibition of human recombinant MMP1 at 100 uM after 1 hr by fluorescence polarization based competition assay
T6 sequence (whole entry): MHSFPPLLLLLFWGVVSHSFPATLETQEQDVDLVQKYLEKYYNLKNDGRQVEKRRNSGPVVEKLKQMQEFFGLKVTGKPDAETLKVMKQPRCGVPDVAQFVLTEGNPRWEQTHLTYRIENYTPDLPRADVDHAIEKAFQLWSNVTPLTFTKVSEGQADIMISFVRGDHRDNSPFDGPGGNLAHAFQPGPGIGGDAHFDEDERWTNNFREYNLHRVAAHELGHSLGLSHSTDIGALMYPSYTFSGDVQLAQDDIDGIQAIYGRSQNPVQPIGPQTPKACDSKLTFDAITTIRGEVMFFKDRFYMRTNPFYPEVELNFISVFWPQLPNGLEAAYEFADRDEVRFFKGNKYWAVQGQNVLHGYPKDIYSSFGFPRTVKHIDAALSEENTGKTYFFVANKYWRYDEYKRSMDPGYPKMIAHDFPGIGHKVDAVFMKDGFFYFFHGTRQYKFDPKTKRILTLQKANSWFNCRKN

[7] = system: HL-60; test: Cytotoxicity against human HL60 cells; type: functional, cell-based
[8] = system: Jurkat; test: Cytotoxicity against human Jurkat cells; type: functional, cell-based
[9] = system: MOLT-3; test: Cytotoxicity against human MOLT3 cells; type: functional, cell-based
[10] = Cytotoxicity against human ALL3 cells; type: functional, cell-based
[11] = Cytotoxicity against human CWR22 cells; type: functional, cell-based
[12] = system: HEK293; test: Cytotoxicity against human HEK293 cells; type: cell-based
[13] = system: Y79; test: Cytotoxicity against human Y79 cells; type: functional, cell-based
[14] = Cytotoxicity against human Meso47 cells; type: functional, cell-based
[15] = system: Staphylococcus aureus; test: Antibacterial activity against Staphylococcus aureus ATCC 29213; type: functional
[16] = system: Staphylococcus epidermidis; test: Antibacterial activity against Staphylococcus epidermidis ATCC 12228; type: functional
[17] = system: Streptococcus pyogenes; test: Antibacterial activity against Streptococcus pyogenes ATCC 19615; type: functional
[18] = system: Enterococcus faecalis; test: Antibacterial activity against Enterococcus faecalis ATCC 29212; type: functional
[19] = system: Enterococcus faecium; test: Antibacterial activity against Enterococcus faecium ATCC 19434; type: functional
[20] = system: Streptococcus pneumoniae; test: Antibacterial activity against Streptococcus pneumoniae ATCC 6301; type: functional
[21] = system: Haemophilus influenzae; test: Antibacterial activity against Haemophilus influenzae ATCC 49766; type: functional
[22] = system: Citrobacter freundii; test: Antibacterial activity against Citrobacter freundii ATCC 8090; type: functional
[23] = system: Enterobacter cloacae; test: Antibacterial activity against Enterobacter cloacae ATCC 13047; type: functional
[24] = system: Escherichia coli; test: Antibacterial activity against Escherichia coli ATCC 25922; type: functional
[25] = system: Cutibacterium acnes; test: Antibacterial activity against Propionibacterium acnes ATCC 11827; type: functional
[26] = system: Bacteroides fragilis; test: Antibacterial activity against Bacteroides fragilis ATCC 25285; type: functional
[27] = system: Candida albicans; test: Antifungal activity against Candida albicans ATCC 90028; type: functional
[28] = system: HL-60; test: Cytotoxicity against human vincristine-resistant HL60 cells; type: functional, cell-based
[29] = target: T3, Peptide deformylase, mitochondrial (Homo sapiens); test: Inhibition of human peptide deformylase at 10 uM after 1 hr by fluorescence polarization based competition assay

Compound: COc1ccc(C(=O)c2coc3c2C(=O)C(=O)C=C3Cl)cc1
IC50 [1]: 16 µM | IC50 [2]: > 100 µM | inhibition [3]: 100% | inhibition [4]: 13% | inhibition [5]: 68% | inhibition [6]: 10% | IC50 [7]: 17 µM | IC50 [8]: 13 µM | IC50 [9]: 11 µM | IC50 [10]: 47 µM | IC50 [11]: 59 µM | IC50 [12]: 40 µM | IC50 [13]: 74 µM | IC50 [14]: 100 µM

Compound: C[C@@H](O)[C@H]1C(=O)N2C(C(=O)O)=C(SCCNC=N)C[C@H]12 [IMIPENEM ANHYDROUS]
MIC [15]: ≤ 0.12 µg/mL | MIC [16]: ≤ 0.12 µg/mL | MIC [17]: ≤ 0.12 µg/mL | MIC [18]: 0.5 µg/mL (≈ 1.67 µM) | MIC [19]: 2 µg/mL (≈ 6.68 µM) | MIC [20]: ≤ 0.12 µg/mL | MIC [21]: 1 µg/mL (≈ 3.34 µM) | MIC [22]: 1 µg/mL (≈ 3.34 µM) | MIC [23]: 1 µg/mL (≈ 3.34 µM) | MIC [24]: ≤ 0.12 µg/mL | MIC [25]: ≤ 0.12 µg/mL | MIC [26]: ≤ 0.12 µg/mL | MIC [27]: > 64 µg/mL

Compound: COc1cc(C(=O)c2coc3c2C(=O)C(=O)C(Cl)=C3Cl)cc(OC)c1OC
IC50 [1]: 25 µM | IC50 [2]: > 100 µM | inhibition [3]: 100% | inhibition [4]: 27% | inhibition [5]: 50% | inhibition [6]: 32% | IC50 [7]: 36 µM | IC50 [28]: 55 µM | IC50 [8]: 5.9 µM | IC50 [9]: 7 µM | IC50 [10]: 49 µM | IC50 [14]: 100 µM

inhibition [29]: 90% | IC50 [1]: 32 µM | IC50 [2]: > 100 µM | inhibition [3]: 100% | inhibition [4]: 5% | inhibition [5]: 22% | inhibition [6]: 26%
Compound: COc1ccc(C(=O)c2coc3c2C(=O)C(=O)C(Br)=C3)cc1
IC50 [7]: 48 µM | IC50 [8]: 20 µM | IC50 [9]: 4 µM | IC50 [10]: 48 µM | IC50 [12]: 54 µM | IC50 [13]: 100 µM

Compound: O=C1C=Cc2occ(C(=O)c3ccccc3)c2C1=O
IC50 [2]: > 100 µM | inhibition [3]: 100% | inhibition [4]: 32% | inhibition [5]: 5% | inhibition [6]: 0% | IC50 [8]: 8.1 µM | IC50 [9]: 7.3 µM | IC50 [10]: 22 µM | IC50 [11]: 30 µM | IC50 [14]: 63 µM

Compound: COc1ccc(C(=O)c2coc3c2C(=O)C(=O)C(Cl)=C3Cl)cc1OC
IC50 [1]: 6.1 µM | inhibition [3]: 100% | inhibition [4]: 63% | inhibition [5]: 99% | inhibition [6]: 46% | IC50 [28]: 100 µM | IC50 [12]: 100 µM

inhibition [29]: 81%
Compound: Cc1ccc(C(=O)c2coc3c2C(=O)C(=O)C(Br)=C3)cc1

inhibition [29]: 97%
Compound: O=C1C(=O)c2c(C(=O)c3ccccc3)coc2C=C1Br
